target: T1, TANK-2 enzyme (Homo sapiens, UniProt Q9H2K2); experiment: In vitro Scintillation Proximity Assay (SPA) for TANK-2 inhibitory activity; type: biochemical; conditions: read-out: in vitro SPA assay TANK-2 pIC50 (converted)
T1 construct: made in house
T1 sequence (Q9H2K2 1-1166): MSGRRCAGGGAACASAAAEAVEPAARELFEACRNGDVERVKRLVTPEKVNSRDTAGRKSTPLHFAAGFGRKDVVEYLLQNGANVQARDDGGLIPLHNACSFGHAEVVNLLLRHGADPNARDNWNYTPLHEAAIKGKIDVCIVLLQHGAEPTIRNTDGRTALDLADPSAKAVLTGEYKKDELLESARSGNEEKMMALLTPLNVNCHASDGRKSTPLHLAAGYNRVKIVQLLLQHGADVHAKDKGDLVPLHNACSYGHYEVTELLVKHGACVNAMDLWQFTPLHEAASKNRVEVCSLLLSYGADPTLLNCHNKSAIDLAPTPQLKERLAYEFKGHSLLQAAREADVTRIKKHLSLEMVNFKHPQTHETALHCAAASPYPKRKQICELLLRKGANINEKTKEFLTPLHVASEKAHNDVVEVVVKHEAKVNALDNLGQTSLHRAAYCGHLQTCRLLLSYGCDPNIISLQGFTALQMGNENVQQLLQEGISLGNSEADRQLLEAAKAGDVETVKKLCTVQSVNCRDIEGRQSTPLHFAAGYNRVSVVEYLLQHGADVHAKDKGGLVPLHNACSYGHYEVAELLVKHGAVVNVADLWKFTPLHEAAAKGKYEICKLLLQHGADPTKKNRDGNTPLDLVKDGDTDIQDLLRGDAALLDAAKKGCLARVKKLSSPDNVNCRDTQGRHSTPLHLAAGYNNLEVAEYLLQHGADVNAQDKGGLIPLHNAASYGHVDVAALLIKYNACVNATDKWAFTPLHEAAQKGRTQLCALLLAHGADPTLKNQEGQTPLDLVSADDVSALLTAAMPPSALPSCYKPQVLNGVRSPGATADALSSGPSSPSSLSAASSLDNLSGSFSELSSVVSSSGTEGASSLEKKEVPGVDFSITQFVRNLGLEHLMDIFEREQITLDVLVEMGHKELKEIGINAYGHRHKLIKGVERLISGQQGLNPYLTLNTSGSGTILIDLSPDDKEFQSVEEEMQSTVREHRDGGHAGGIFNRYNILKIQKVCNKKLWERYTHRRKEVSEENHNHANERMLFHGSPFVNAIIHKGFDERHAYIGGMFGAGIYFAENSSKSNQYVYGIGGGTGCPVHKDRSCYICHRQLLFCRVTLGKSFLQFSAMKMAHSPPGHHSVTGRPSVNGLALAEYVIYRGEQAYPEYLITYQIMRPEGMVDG
Method in brief: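 TANK-2 (8 μg/ml final) auto-poly(ADP-ribosyl)ation with [3H]-NAD+/NAD donor was run in Ni flash plates in Tris/HCl pH 7.4 buffer with DTT and MgCl2, 120 min at room temperature, then stopped with excess NAD and scintillation-counted. Blank-corrected cpm was expressed as % of enzyme control, and IC50 was linearly interpolated and reported as pIC50.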

| IC50 [nM] | Structure (SMILES) |
| --- | --- |
| 79.4 | CCc1cc2ccc(C(C)(C#N)Cc3cnc(OC)nc3Cl)cc2[nH]c1=O (stereo not drawn) [Compound 356] |
| 79.4 | CCc1cc2ccc(C(C)(C#N)Cc3cnc(OC)nc3OC)cc2[nH]c1=O (stereo not drawn) [Compound 357] |
| 100 | CCc1cc2ccc(C(C)(C#N)Cc3cc(OC)nc(OC)n3)cc2[nH]c1=O (stereo not drawn) [Compound 358] |
| 100 | CCc1cc2ccc(C(C)(C#N)Cc3nc(Cl)cc(N(C)C)n3)cc2[nH]c1=O (stereo not drawn) [Compound 359] |
| 126 | CCc1cc2ccc(C(C)(C#N)Cc3nccc(OC)n3)cc2[nH]c1=O (stereo not drawn) [Compound 360] |
| 158 | CCc1cc2ccc(C(C)(C#N)Cc3cc(OCCOC)nc(C)n3)cc2[nH]c1=O (stereo not drawn) [Compound 363] |
| 100 | CCc1cc2ccc(C(C)(C#N)Cc3cc(N(C)C)nc(Cl)n3)cc2[nH]c1=O (stereo not drawn) [Compound 364] |
| 158 | CCc1cc2ccc(C(C)(C#N)Cc3cc(OC)nc(C)n3)cc2[nH]c1=O (stereo not drawn) [Compound 366] |
| 158 | CCc1cc2ccc(C(C)(C#N)Cc3cc(OCCOC)nc(Cl)n3)cc2[nH]c1=O (stereo not drawn) [Compound 367] |
| 158 | CCc1cc2ccc(C(C)(C#N)Cc3nc(C)cc(C)n3)cc2[nH]c1=O (stereo not drawn) [Compound 368] |
| 631 | CCc1cc2ccc(C(C)(C#N)Cc3nccc(OCCOC)n3)cc2[nH]c1=O (stereo not drawn) [Compound 369] |
| 251 | CCc1cc2ccc(C(C)(C#N)Cc3nc(Cl)cc(OCCOC)n3)cc2[nH]c1=O (stereo not drawn) [Compound 370] |
| 126 | CCc1cc2ccc(C(C)(C#N)Cc3cc(Cl)nc(Cl)c3)cc2[nH]c1=O (stereo not drawn) [Compound 372] |
| 501 | CCc1cc2ccc(C(C)(C#N)Cc3cc(OC)ccn3)cc2[nH]c1=O (stereo not drawn) [Compound 373] |
| 100 | CCc1cc2ccc(C(C)(C#N)CC3CCc4ccccc4O3)cc2[nH]c1=O (stereo not drawn) [Compound 399] |
